Results on ten compounds are retold here after ChEMBL document CHEMBL2417421, “Biotransformation of ent-pimaradienoic acid by cell cultures of Aspergillus niger” (2013).

The test system of the assay is Aorta. Kind of assay: Antispasmodic activity in rat aorta assessed as inhibition of phenylephrine-induced aorta contraction at 100 uM after 60 mins relative to control. The format is functional. As to conditions: 1 h.

For the compound `C=C[C@]1(C)C=C2CC[C@H]3[C@@](C)(CCC[C@@]3(C)C(=O)O)[C@@H]2CC1`, the inhibition at 100 µM stood at 73.2%.
The figure for `C=C[C@]1(C)C=C2[C@H](O)C[C@H]3[C@@](C)(CCC[C@@]3(C)C(=O)O)[C@@H]2CC1` is 16.8%; for `C=C[C@]1(C)C=C2C=C[C@H]3[C@](C)([C@@H]2CC1)[C@@H](O)CC[C@@]3(C)C(=O)O` it is 12.5%; for `C=C[C@@]1(C)CC[C@@H]2C(=C[C@H](O)[C@H]3[C@@]2(C)[C@H](O)CC[C@@]3(C)C(=O)O)[C@H]1O` it is 0%.
The figure for `C=C[C@]1(C)C=C2[C@@H](O)[C@H](O)[C@H]3[C@@](C)([C@H](O)CC[C@@]3(C)C(=O)O)[C@@H]2[C@@H](O)C1` is 0%; for `C=C[C@@]1(C)CC[C@@H]2C(=CC[C@H]3[C@@]2(C)CCC[C@@]3(C)C(=O)O)C1` it is 50.8%.
For `C=C[C@]1(C)C=C2C(=O)C[C@H]3[C@@](C)(CCC[C@@]3(C)C(=O)O)[C@@H]2CC1` the value was 61.5%.
With `C=C[C@]1(C)C=C2[C@@H](CC1)[C@]1(C)CCC[C@@](C)(C(=O)OC)[C@H]1C[C@@H]2O`, the inhibition at 100 µM was determined as 82.5%.
For `C=C[C@]1(C)C=C2CC[C@@H]3[C@](C)(CO)CCC[C@@]3(C)[C@@H]2CC1` the value was 58.8%.
For `C=C[C@]1(C)C=C2CC[C@H]3[C@@](C)(CCC[C@@]3(C)C(=O)OC)[C@@H]2CC1` the value was 10.5%.
